Columns and labels:
[1] = compound: C1=CC(=CC(=C1)N2C(=O)C=CC3=CN=C4C=CC(=CC4=C32)C5=CN=C(C=C5)N)C(F)(F)F [Torin2]
[2] = compound: C1=CC2=C(C=CC(=C2)C=C3C(=O)NC(=NCC4=CC=CS4)S3)N=C1 [R0-3306]
[3] = compound: C=CCn1c(=O)c2cnc(Nc3ccc(N4CCN(C)CC4)cc3)nc2n1-c1cccc(C(C)(C)O)n1 [AZD1775]
[4] = compound: CC(=O)Nc1cccc(-n2c(=O)n(C3CC3)c(=O)c3c(Nc4ccc(I)cc4F)n(C)c(=O)c(C)c32)c1
[5] = compound: CC(=O)c1c(C)c2cnc(Nc3ccc(N4CCNCC4)cn3)nc2n(C2CCCC2)c1=O
[6] = compound: CC(C)NC[C@@H](C(=O)N1CCN(c2ncnc3c2[C@H](C)C[C@H]3O)CC1)c1ccc(Cl)cc1 [Ipatasertib/GDC0068]
[7] = compound: CC(C)Nc1cc(-c2c[nH]c(C(=O)N[C@H](CO)c3cccc(Cl)c3)c2)c(Cl)cn1 [BVD523]
[8] = compound: CC(C)n1nc(-c2ccc3oc(N)nc3c2)c2c(N)ncnc21 [INK128/MLN0128]
[9] = compound: CC1=CN2C(=O)C=C(N=C2C(=C1)C(C)NC3=CC=CC=C3)N4CCOCC4 [TGX221]
[10] = compound: CCC1=CN=CN=C1N2CCN(CC2)CC3=NC4=C(N3)C=C(C=C4)C(F)(F)F
[11] = compound: CCOc1cc2ncc(C#N)c(Nc3ccc(OCc4ccccn4)c(Cl)c3)c2cc1NC(=O)/C=C/CN(C)C [Neratinib/HKI272]
[12] = compound: CC[C@@H]1C(=O)N(C)c2cnc(Nc3ccc(C(=O)N[C@H]4CC[C@H](N5CCN(CC6CC6)CC5)CC4)cc3OC)nc2N1C(C)C [Volasertib/BI6727]
[13] = compound: CN(C)C(=O)c1cc2cnc(Nc3ccc(N4CCNCC4)cn3)nc2n1C1CCCC1 [LEE011/Ribociclib]
[14] = compound: CN(C)C/C=C/C(=O)Nc1ccc(C(=O)N2CCC[C@@H](Nc3ncc(Cl)c(-c4c[nH]c5ccccc45)n3)C2)cc1 [THZ531]
[15] = compound: CN(C)C/C=C/C(=O)Nc1ccc(C(=O)Nc2cccc(Nc3ncc(Cl)c(-c4c[nH]c5ccccc45)n3)c2)cc1 [THZ1]
[16] = compound: CN(C)CC[C@H](CSc1ccccc1)Nc1ccc(S(=O)(=O)NC(=O)c2ccc(N3CCN(Cc4ccccc4-c4ccc(Cl)cc4)CC3)cc2)cc1[N+](=O)[O-] [ABT-737]
[17] = compound: CN1CCN(C(=O)c2ccc3cc(CCNc4ncnc5ccc(C#N)cc45)ccc3c2)CC1 [senexin b]
[18] = compound: CN1CC[C@H](c2c(O)cc(O)c3c(=O)cc(-c4ccccc4Cl)oc23)[C@H](O)C1 [Flavopiridol]
[19] = compound: CNC(=O)c1cccc(-c2ccc3c(N4CCOC[C@@H]4C)nc(N4CCOC[C@@H]4C)nc3n2)c1 [AZD2014]
[20] = compound: CNCc1ccc(-c2[nH]c3cc(F)cc4c3c2CCNC4=O)cc1 [Rucaparib]
[21] = compound: CNc1nc(-c2ccc3c(N)n[nH]c3c2)cc(N2C[C@@H](C(=O)NC3CCCCC3)CC[C@H]2C)n1
[22] = compound: CO[C@@H](C)Cn1c(=O)n(C)c2cnc3ccc(-c4cncc(C(C)(C)O)c4)cc3c21
[23] = compound: COc1cc2c(Oc3ccc4[nH]c(C)cc4c3F)ncnc2cc1OCCCN1CCCC1 [Cediranib/AZD2171]
[24] = compound: COc1ccc2c(c1)[C@]1(C[C@H]1c1ccc3c(/C=C/c4ccc(CN5C[C@@H](C)O[C@@H](C)C5)cc4)n[nH]c3c1)C(=O)N2
[25] = compound: COc1cccc2c1C(=O)c1c(O)c3c(c(O)c1C2=O)C[C@@](O)(C(=O)CO)C[C@@H]3O[C@H]1C[C@H](N)[C@H](O)[C@H](C)O1 [Doxorubicin]
[26] = compound: CS(=O)(=O)N1CCN(Cc2cc3nc(-c4cccc5[nH]ncc45)nc(N4CCOCC4)c3s2)CC1 [Pictilisib/GDC0941]
[27] = compound: C[C@@H]1COCCN1c1cc(C2([S@](C)(=N)=O)CC2)nc(-c2cc[nH]c3nccc2-3)n1 [AZD6738]
[28] = compound: Cc1nc(-c2cn3c(n2)-c2ccc(-c4cnn(C(C)(C)C(N)=O)c4)cc2OCC3)n(C(C)C)n1 [Taselisib/GDC0032]
[29] = compound: Cc1nc(NC(=O)N2CCC[C@H]2C(N)=O)sc1-c1ccnc(C(C)(C)C(F)(F)F)c1 [Alpelisib/BYL719]
[30] = compound: Cc1nc(Nc2ncc(C(=O)Nc3c(C)cccc3Cl)s2)cc(N2CCN(CCO)CC2)n1 [Dasatinib]
[31] = compound: Cc1nn(C)c(COc2ccc(N3CCN(S(=O)(=O)N(C)C)CC3)cc2)c1-c1cccc2c(CCCOc3cccc4ccccc34)c(C(=O)O)n(CCN3CCOCC3)c12
[32] = compound: NC(=O)Nc1cc(-c2cccc(F)c2)sc1C(=O)N[C@H]1CCCNC1 [AZD7762]
[33] = compound: O=C(c1cc(Cc2n[nH]c(=O)c3ccccc23)ccc1F)N1CCN(C(=O)C2CC2)CC1 [Olaparib/AZD2281]
[34] = compound: O=C1NC(=O)[C@@H](c2cn3c4c(cccc24)CCC3)[C@@H]1c1c[nH]c2ccccc12 [Tivantinib/ARQ197]
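Further: breast cancer and non-malignant breast epithelial cell lines, Deep Dye Drop or Dye Drop imaging, nine half-log doses, GR normalized to time-zero plates and DMSO-only controls.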

| Cell Line | GR50, 72 h [1] [µM] | GR50, 72 h [2] [µM] | GR50, 72 h [3] [µM] | GR50, 72 h [4] [µM] | GR50, 72 h [5] [µM] | GR50, 72 h [6] [µM] | GR50, 72 h [7] [µM] | GR50, 72 h [8] [µM] | GR50, 72 h [9] [µM] | GR50, 72 h [10] [µM] | GR50, 72 h [11] [µM] | GR50, 72 h [12] [µM] | GR50, 72 h [13] [µM] | GR50, 72 h [14] [µM] | GR50, 72 h [15] [µM] | GR50, 72 h [16] [µM] | GR50, 72 h [17] [µM] | GR50, 72 h [18] [µM] | GR50, 72 h [19] [µM] | GR50, 72 h [20] [µM] | GR50, 72 h [21] [µM] | GR50, 72 h [22] [µM] | GR50, 72 h [23] [µM] | GR50, 72 h [24] [µM] | GR50, 72 h [25] [µM] | GR50, 72 h [26] [µM] | GR50, 72 h [27] [µM] | GR50, 72 h [28] [µM] | GR50, 72 h [29] [µM] | GR50, 72 h [30] [µM] | GR50, 72 h [31] [µM] | GR50, 72 h [32] [µM] | GR50, 72 h [33] [µM] | GR50, 72 h [34] [µM] |
| --- | --- | --- | --- | --- | --- | --- | --- | --- | --- | --- | --- | --- | --- | --- | --- | --- | --- | --- | --- | --- | --- | --- | --- | --- | --- | --- | --- | --- | --- | --- | --- | --- | --- | --- |
| HCC1419 | 0.0055 | 8.88 | 2.59 | 0.0308 | 0.462 | > 10 | > 10 | 0.00475 | > 10 | 5.28 | 0.00115 | 0.0207 | > 10 | 0.162 | 0.0611 | 9.85 | 10 | 0.191 | < 0.001 | > 10 | 7.64 | < 0.001 | 5.06 | 0.00375 | 0.0251 | 0.172 | 8.9 | 0.00918 | 0.669 | 0.825 | > 10 | 0.0686 | > 10 | 0.473 |
| HCC1806 | 0.0358 | 5.39 | 0.0128 | > 1 | > 3.16 | > 10 | > 10 | 0.0524 | > 10 | > 10 | 0.78 | 0.0028 | > 10 | 0.407 | 0.0688 | > 10 | > 10 | 0.168 | 1.82 | > 10 | > 10 | 0.347 | 4.93 | 0.00322 | 0.0159 | 5.87 | 1.1 | 1.55 | > 10 | 0.0537 | > 10 | 0.0166 | > 10 | 0.272 |
| HCC1937 | 0.0934 | 5.17 | 0.00892 | > 1 | > 3.16 | > 10 | > 10 | 0.0515 | > 10 | > 10 | 1.46 | 0.0119 | > 10 | 0.26 | 0.0648 | 5.77 | 4.95 | 0.168 | 0.0304 | > 10 | > 10 | 0.139 | 8.4 | 0.00432 | 0.0128 | 2.42 | 9.08 | 1.23 | > 10 | 0.113 | > 10 | 0.17 | > 10 | 0.649 |
| HS578T | 0.0071 | 4.28 | 0.0155 | 0.00636 | 0.156 | 4.59 | 1.14 | 0.00906 | > 10 | > 10 | 0.644 | 0.00257 | 2.33 | 0.0496 | 0.0183 | > 10 | > 10 | 0.148 | 0.0683 | > 10 | > 10 | < 0.001 | 0.551 | 0.00238 | 0.00411 | 1.16 | 5.26 | 0.575 | > 10 | 0.0386 | > 10 | 0.0151 | 8.91 | 0.337 |
| MCF7 | 0.00456 | 6.26 | 0.0111 | > 1 | 0.075 | 1.3 | 3.8 | 0.00298 | > 10 | > 10 | 1.26 | 0.00287 | 0.185 | 0.061 | 0.0224 | > 10 | > 10 | 0.0847 | < 0.001 | > 10 | 3.23 | < 0.001 | 5.7 | 0.00197 | 0.0161 | 0.13 | 3.05 | 0.00836 | 0.585 | 0.0694 | > 10 | 0.0414 | > 10 | 0.151 |
| MCF10A | 0.032 | 5.9 | 6.21 | 0.00336 | 1.95 | > 10 | 1.28 | 0.0242 | > 10 | > 10 | 0.102 | 0.0221 | > 10 | 0.358 | 0.0723 | > 10 | > 10 | 0.152 | 0.473 | > 10 | > 10 | 0.163 | 9.75 | 0.00588 | 0.0108 | 1.88 | 9.08 | 0.119 | > 10 | 0.709 | > 10 | 1.81 | > 10 | 0.181 |
